Assay results: PMC8097421 (Antimicrobial Agents and Chemotherapy, 2021)
Marks after values point to notes of the source that are not given here.

Legend:
[1] = human, in vivo
clinical = conditions: human, in vivo
in vivo [2] = conditions: male, cynomolgus, cynomolgus monkey, po, 30 mg/kg
[3] = Clinical observation of nonhuman primates in the PK study; type: in vivo, cynomolgus monkey; conditions: NHP, oral AT-527 60 mg/kg loading then 30 mg/kg every 12 h
[4] = set-up: method as in doi:10.1016/S0168-8278(20)31210-1; conditions: HCV-infected subjects, daily oral 550 mg with daclatasvir for up to 12 weeks; cited from earlier work
[5] = Estimated oral bioavailability; conditions: in vivo, species and source not stated
[6] = Steady-state plasma pharmacokinetics in nonhuman primates after oral AT-527; conditions: NHP plasma, oral AT-527 60 mg/kg loading then 30 mg/kg every 12 h
[7] = male, cynomolgus monkey, in vivo
Huh-7 cells = conditions: human, 8 h, 10 µM
NiRAN domain of nsp12 = test system: NiRAN domain of nsp12; set-up: method as in our unpublished data; conditions: ref our unpublished data; cited from earlier work
[8] = test system: primary human hepatocytes; conditions: cited from earlier work
in vivo [9] = conditions: male, cynomolgus monkey; for half-life: po, 30 mg/kg
in vitro [10] = conditions: human, intracellular half-life (t1/2) of AT-9010
primary NHP hepatocytes = conditions: cited from earlier work
[11] = test system: MRC-5 (human lung fibroblast) cells; conditions: 8 h, 10 µM
in vitro [12] = conditions: human, intracellular half-life (t1/2) of AT-9010; remark: listed apart in the source
[13] = test system: human bronchial epithelial (HBE) cells; conditions: 10 µM
[14] = test system: SARS-CoV-2 (USA-WA1/2020); assay: microbe, parasite or virus in culture; type: cell-based, SARS-CoV-2 (Betacoronavirus); conditions: SARS-CoV-2, HAE cells
in vitro [15] = conditions: human
[16] = Cytotoxicity in uninfected BHK-21 cells; type: cell-based; conditions: hamster, 3-day incubation, read-out: CPE assay CC50
Experimental: (§1) To assess whether AT-511, a 2′-fluoro-2′-methyl guanosine nucleotide prodrug (Fig. 1), had antiviral activity against a seasonal human alpha coronavirus, HCoV-229E, BHK-21 (baby hamster kidney) cells were acutely infected with the virus and exposed to serial dilutions of the drug. […] Half-maximal cytotoxicity (CC50) measured by neutral red staining of compound-treated cells in the absence of virus indicated little to no toxicity was detected from either drug up to 100 μM.
(§2) AT-511 and sofosbuvir were dissolved in DMSO at 100 mM and then diluted in growth medium to final concentrations of 100, 20, 4, and 0.8 μM (two […] replicate plates each). After BHK-21 cells were grown to confluence in 96-well plates, growth medium was replaced with fresh maintenance medium (growth medium with 1% inactivated FBS in place of 10% FBS) containing serially diluted test compound and HCoV-229E at a multiplicity of infection (MOI) of 0.01. Uninfected cells in the presence of serially diluted compound were used to assess the cytotoxicity of compounds. After a 3-day incubation at 37°C in a humidified 5% CO2 atmosphere, cell viability was determined by the 3-(4,5-dimethyl-2-thiazolyl)-2,5-diphenyl-2H-tetrazolium bromide (MTT) method ([22]). […]

HCoV-229E = assay: CPE assay, HCoV-229E in BHK-21 cells; type: cell-based, HCoV-229E (Alphacoronavirus); conditions: Human coronavirus 229E, 72 h, 3-day incubation, MOI 0.01
Experimental: as §1, §2

SMILES: C[C@@]1(F)[C@H](O)[C@@H](CO)O[C@H]1n1cnc2c(=O)[nH]c(N)nc21 [AT-273]
- absorption constant (Ka), population estimate [1]: 0.45 (±0.00253) h^−1
- volume of central compartment (V1), population estimate [1]: 2,070 (±146) liters
- volume of peripheral compartment (V2), population estimate [1]: 1,270 (±164) liters
- clearance (clinical): 3130 mL/min
- AUC(0-t) (in vivo [2]): 1.56 ± 0.18 µM·h
- half-life (in vivo [2]): 16 h

SMILES: CNc1nc(N)nc2c1ncn2C1OC(COP(=O)(NC(C)C(=O)OC(C)C)Oc2ccccc2)C(O)C1(C)F (stereo not shown) [AT-527]
- unusual or adverse clinical signs [3]: no such signs noted
- safety and tolerability [4]: safe and well tolerated
- bioavailability [5]: ≥ 50%

SMILES: CNc1nc(N)nc2c1ncn2[C@@H]1O[C@H](CO[P@](=O)(O)N[C@@H](C)C(=O)O)[C@@H](O)[C@@]1(C)F [AT-551]
- Tmax (in vivo [2]): 1 to 4 h
- AUC0–12 [6]: 4.35 ± 1.77 µM·h

SMILES: C[C@@]1(F)[C@H](O)[C@@H](COP(=O)(O)OP(=O)(O)OP(=O)(O)O)O[C@H]1n1cnc2c(=O)[nH]c(N)nc21 [AT-9010]
- AT-9010 lung-to-liver concentration ratio ([7]; 12 h): 1.6
- AT-9010 in liver samples at 48-h postdose ([7]; 48 h): no peak corresponding to AT-9010 was detected
- AT-9010 formed (Huh-7 cells): 182 ± 6 pmol/10^6 cells
- inhibition of NiRAN (NiRAN domain of nsp12): potent inhibitor
- in vitro t1/2 of AT-9010 [8]: 10 h
- concentration at 12 h (in vivo [9]; AT-9010 concentration in kidney): 130 ± 40 nM
- concentration at 12 h (in vivo [9]; AT-9010 concentration in liver tissue): 90 ± 30 nM
- concentration at 12 h (in vivo [9]; AT-9010 concentration in lung tissue): 140 ± 110 nM
- half-life (in vivo [9]; estimated half-life of AT-9010 in kidney tissue): 8.5 h
- half-life (in vivo [9]; estimated half-life of AT-9010 in lung tissue): 9.4 h
- half-life at 10 µM (in vitro [10]): 38 to 39 h
- in vitro t1/2 of AT-9010 (primary NHP hepatocytes): 10 h
- AT-9010 formed [11]: 26.5 ± 0.5 pmol/10^6 cells
- half-life at 10 µM (in vitro [12]): 38 to 39 h
- in vitro t1/2 of the TP, fold longer than in hepatocytes [13]: 4

SMILES: CC(C)C(=O)OC[C@H]1O[C@@H](n2ccc(NO)nc2=O)[C@H](O)[C@@H]1O [Molnupiravir]
- Selectivity index (CC50/EC90) ([14]; CC50/EC90): >4.9^c
- EC90 ([14]; Severe acute respiratory syndrome coronavirus 2, 120 h, 5-day incubation, read-out: VYR assay EC90): 2.8 ± 1 µM
- CC50 at 5 days (in vitro [15]): > 19 µM

SMILES: CC(C)OC(=O)[C@H](C)N[P@](=O)(OC[C@H]1O[C@@H](n2ccc(=O)[nH]c2=O)[C@](C)(F)[C@@H]1O)Oc1ccccc1 [Sofosbuvir]
- CC50 at 3 days [16]: > 100 µM
- EC50 (HCoV-229E): > 100 µM
